{"source": "paper PMC5435364", "about": "(PLoS Pathogens, 2017)", "tested_on": "Qa-1", "assay": "Qa-1/peptide binding assay (flow cytometry-based competition with biotinylated Qdm)", "design": "species or system mouse", "conditions": "Qa-1 transfected HeLa cells, 0.5 μM biotinylated Qdm + 5 or 10 μM unlabeled competing peptide, 1.5 hours at 4°C, Fig 2A"}
{"substance": "OT-I: negative control OT-I peptide", "values": [{"measurement": "Competition with bio-Qdm for binding to Qa-1 (decrease in streptavidin-APC staining)", "result": "unable to do so"}]}
